From ChEMBL document CHEMBL6177960, “Rational design, optimization, and biological evaluation of novel pyrrolo-pyridone derivatives as potent and orally active Cbl-b inhibitors” (Eur J Med Chem, 2025)

Biological target: E3 ubiquitin-protein ligase CBL-B (Homo sapiens, UniProt Q13191)
Test: Binding affinity to Cbl-b (unknown origin) assessed as inhibition constant incubated for 60 mins by TR-FRET assay

Chain of E3 ubiquitin-protein ligase CBL-B (Q13191 whole entry): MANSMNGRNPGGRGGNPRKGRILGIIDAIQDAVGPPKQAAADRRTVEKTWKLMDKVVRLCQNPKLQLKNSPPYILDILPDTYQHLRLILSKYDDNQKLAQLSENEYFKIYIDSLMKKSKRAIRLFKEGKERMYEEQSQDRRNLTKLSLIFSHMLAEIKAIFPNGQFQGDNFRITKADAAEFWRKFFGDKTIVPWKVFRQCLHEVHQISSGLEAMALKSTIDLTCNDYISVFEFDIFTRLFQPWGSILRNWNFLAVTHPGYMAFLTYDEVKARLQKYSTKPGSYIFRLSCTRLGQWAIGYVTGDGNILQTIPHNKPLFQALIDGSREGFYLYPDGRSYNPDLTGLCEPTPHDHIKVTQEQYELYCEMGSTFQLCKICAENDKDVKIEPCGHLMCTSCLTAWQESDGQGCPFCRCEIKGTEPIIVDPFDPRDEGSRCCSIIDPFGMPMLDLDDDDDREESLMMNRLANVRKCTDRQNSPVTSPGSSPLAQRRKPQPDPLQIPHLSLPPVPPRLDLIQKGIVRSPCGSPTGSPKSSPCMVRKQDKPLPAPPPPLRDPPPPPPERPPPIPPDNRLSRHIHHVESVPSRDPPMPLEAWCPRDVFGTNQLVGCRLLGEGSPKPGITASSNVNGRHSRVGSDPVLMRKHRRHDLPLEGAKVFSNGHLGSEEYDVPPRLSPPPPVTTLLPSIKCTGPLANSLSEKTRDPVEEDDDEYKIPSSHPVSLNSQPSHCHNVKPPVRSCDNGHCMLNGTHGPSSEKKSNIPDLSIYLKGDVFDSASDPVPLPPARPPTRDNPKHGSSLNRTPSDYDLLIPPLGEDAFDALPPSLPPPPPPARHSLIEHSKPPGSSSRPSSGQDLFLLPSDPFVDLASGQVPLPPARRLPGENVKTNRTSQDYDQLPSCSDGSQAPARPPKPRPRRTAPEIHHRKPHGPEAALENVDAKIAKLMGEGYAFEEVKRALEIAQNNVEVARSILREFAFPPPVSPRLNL

Structure (SMILES) | Ki [nM]
CCN(Cc1cc2c(C(F)(F)F)cn(-c3cccc(C4(c5nncn5C)CCC4)c3)c(=O)c2[nH]1)CC(C)C | 2.87
CO[C@H]1C[C@@](c2cccc(-n3cc(C(F)(F)F)c4cc(CNC5(C)CCC5)[nH]c4c3=O)c2)(c2nncn2C)C1 | 1.4
Cn1cnnc1C1(c2cccc(-n3cc(C(F)(F)F)c4cc(CN5CCCC6(CC6)C5)[nH]c4c3=O)c2)CCC1 | 1.82
Cn1cnnc1C1(c2cccc(-n3cc(C(F)(F)F)c4cc(CN5CCC[C@H]6C[C@H]65)[nH]c4c3=O)c2)CCC1 | 2
Cn1cnnc1[C@]1(c2cccc(-n3cc(C(F)(F)F)c4cc(CN5CCCC6(CC6)C5)[nH]c4c3=O)c2)C[C@H](C)C1 | 1.32
C[C@H]1CCCN(Cc2cc3c(S(C)(=O)=O)cn(-c4cccc(C5(Cc6nncn6C)COC5)c4)c(=O)c3[nH]2)C1 | 14.2
C[C@H]1CCCN(Cc2cc3c(C4CC4)cn(-c4cccc(C5(C(F)c6nncn6C)CC(F)(F)C5)c4)c(=O)c3[nH]2)C1 (some centres not stated) | 2.34
Cn1cnnc1[C@]1(c2cccc(-n3cc(C(F)(F)F)c4cc(CN5CC6CC6C5)[nH]c4c3=O)c2)C[C@H](C)C1 (some centres not stated) | 0.86
C[C@H]1CCCN(Cc2cc3c(C(F)(F)F)cn(-c4cccc([C@]5(c6nncn6C)C[C@@H](F)C5)c4)c(=O)c3[nH]2)C1 | 1.25
C[C@H]1CCCN(Cc2cc3c(C(F)(F)F)cn(-c4cccc(C5(Cc6nncn6C)CC(F)(F)C5)c4)c(=O)c3[nH]2)C1 | 0.74
Cn1cnnc1C1(c2cccc(-n3cc(C(F)(F)F)c4cc(CN5CCC[C@@H]6C[C@@H]65)[nH]c4c3=O)c2)CCC1 | 4.19
CO[C@H]1C[C@@](c2cccc(-n3cc(C(F)(F)F)c4cc(CN5CC6CCC(C6)C5)[nH]c4c3=O)c2)(c2nncn2C)C1 | 0.82
Cc1cn(-c2cccc(C3(Cc4nncn4C)COC3)c2)c(=O)c2[nH]c(CN3CCC[C@H](C)C3)cc12 | 2.36
CO[C@H]1C[C@](c2cccc(-n3cc(C(F)(F)F)c4cc(CN5CC6CCC(C6)C5)[nH]c4c3=O)c2)(c2nncn2C)C1 | 5.43
CO[C@H]1C[C@](c2cccc(-n3cc(C(F)(F)F)c4cc(CN5CCCC6(CC6)C5)[nH]c4c3=O)c2)(c2nncn2C)C1 | 9.3
Cn1cnnc1[C@]1(c2cccc(-n3cc(C(F)(F)F)c4cc(CN5CC6CCC(C6)C5)[nH]c4c3=O)c2)C[C@H](C)C1 | 1.74
C[C@H]1CCCN(Cc2cc3c(C(F)(F)F)cn(-c4cccc([C@H](c5nncn5C)C5CCC5)c4)c(=O)c3[nH]2)C1 | 0.83
CO[C@H]1C[C@@](c2cccc(-n3cc(C(F)(F)F)c4cc(CN5CCC[C@H](C)C5)[nH]c4c3=O)c2)(c2nncn2C)C1 | 1.39
Cn1cnnc1[C@]1(c2cccc(-n3cc(C(F)(F)F)c4cc(CN5CCC[C@H]6C[C@H]65)[nH]c4c3=O)c2)C[C@H](C)C1 | 1.16
CC[C@H]1C[C@](c2cccc(-n3cc(C(F)(F)F)c4cc(CN5CCC[C@H](C)C5)[nH]c4c3=O)c2)(c2nncn2C)C1 | 1.22
C[C@H]1CCCN(Cc2cc3c(C(F)(F)F)cn(-c4cccc([C@]5(c6nncn6C)C[C@H](OC(F)(F)F)C5)c4)c(=O)c3[nH]2)C1 | 1.54
C[C@H]1CCCN(Cc2cc3c(Br)cn(-c4cccc(C5(Cc6nncn6C)COC5)c4)c(=O)c3[nH]2)C1 | 2.79
Cn1cnnc1C1(c2cccc(-n3cc(C(F)(F)F)c4cc(CNC5(C)CCC5)[nH]c4c3=O)c2)CCC1 | 1.13
Cn1cnnc1[C@]1(c2cccc(-n3cc(C(F)(F)F)c4cc(CN5CCC[C@@H]6C[C@@H]65)[nH]c4c3=O)c2)C[C@H](C)C1 | 1.81
C[C@H]1CCCN(Cc2cc3c(C(F)(F)F)cn(-c4cccc(C5(c6nncn6C)CC(F)(F)C5)c4)c(=O)c3[nH]2)C1 | 1.18

The next lines start with the values.

Ki [nM] | Structure (SMILES)
0.86 | Cn1cnnc1[C@]1(c2cccc(-n3cc(C(F)(F)F)c4cc(CNC5(C)CCC5)[nH]c4c3=O)c2)C[C@H](C)C1
5.29 | C[C@H]1CCCN(Cc2cc3c(C(F)(F)F)cn(-c4cccc(C5(c6nncn6C)COC5)c4)c(=O)c3[nH]2)C1
2.29 | CO[C@H]1C[C@@](c2cccc(-n3cc(C(F)(F)F)c4cc(CN5CCCC6(CC6)C5)[nH]c4c3=O)c2)(c2nncn2C)C1
1.57 | CCN(Cc1cc2c(C(F)(F)F)cn(-c3cccc([C@]4(c5nncn5C)C[C@@H](C)C4)c3)c(=O)c2[nH]1)CC(C)C
2.34 | CO[C@H]1C[C@](c2cccc(-n3cc(C(F)(F)F)c4cc(CNC5(C)CCC5)[nH]c4c3=O)c2)(c2nncn2C)C1
1.58 | C[C@H]1CCCN(Cc2cc3c(C4CC4)cn(-c4cccc(C5(c6nncn6C)CC6(CC6)C5)c4)c(=O)c3[nH]2)C1
2.89 | C/C=C1\C[C@@](c2cccc(-n3cc(C(F)(F)F)c4cc(CN5CCC[C@H](C)C5)[nH]c4c3=O)c2)(c2nncn2C)C1 (some centres not stated)
1.41 | C[C@H]1CCCN(Cc2cc3c(C(F)(F)F)cn(-c4cccc([C@]5(c6nncn6C)C[C@H](F)C5)c4)c(=O)c3[nH]2)C1
1.98 | C[C@H]1CCCN(Cc2cc3c(C(F)(F)F)cn(-c4cccc(C5(Cc6nncn6C)COC5)c4)c(=O)c3[nH]2)C1
1.68 | CO[C@H]1C[C@](c2cccc(-n3cc(C(F)(F)F)c4cc(CN5CCC[C@H](C)C5)[nH]c4c3=O)c2)(c2nncn2C)C1
0.97 | CCN(CC)Cc1cc2c(C(F)(F)F)cn(-c3cccc([C@]4(c5nncn5C)C[C@@H](C)C4)c3)c(=O)c2[nH]1
3.88 | CCN(Cc1cc2c(C(F)(F)F)cn(-c3cccc([C@]4(c5nncn5C)C[C@@H](OC)C4)c3)c(=O)c2[nH]1)CC(C)C
1.68 | C[C@H]1CCCN(Cc2cc3c(C4CC4)cn(-c4cccc(C5(Cc6nncn6C)CC(F)(F)C5)c4)c(=O)c3[nH]2)C1
1.02 | C[C@H]1CCCN(Cc2cc3c(C(F)(F)F)cn(-c4cccc(C5(c6nncn6C)CCC5)c4)c(=O)c3[nH]2)C1
2.58 | CCN(CC)Cc1cc2c(C(F)(F)F)cn(-c3cccc(C4(c5nncn5C)CCC4)c3)c(=O)c2[nH]1
38.2 | C[C@H]1CCCN(Cc2cc3c(C4CC4)cn(-c4cccc([C@@H](c5nncn5C)C5CCC5)c4)c(=O)c3[nH]2)C1
2.34 | Cn1cnnc1C1(c2cccc(-n3cc(C(F)(F)F)c4cc(CN5CC6CC6C5)[nH]c4c3=O)c2)CCC1 (configuration not stated)
1.43 | C[C@H]1CCCN(Cc2cc3c(C4CC4)cn(-c4cccc(C5(Cc6nncn6C)COC5)c4)c(=O)c3[nH]2)C1
0.8 | C[C@H]1CCCN(Cc2cc3c(C(F)(F)F)cn(-c4cccc(C5(c6nncn6C)CC6(CC6)C5)c4)c(=O)c3[nH]2)C1
1.34 | C[C@H]1CCCN(Cc2cc3c(C(F)(F)F)cn(-c4cccc([C@]5(c6nncn6C)C[C@@H](OC(F)(F)F)C5)c4)c(=O)c3[nH]2)C1
18 | C[C@H]1CCCN(Cc2cc3ccn(-c4cccc(C5(Cc6nncn6C)COC5)c4)c(=O)c3[nH]2)C1
1.14 | CC[C@H]1C[C@@](c2cccc(-n3cc(C(F)(F)F)c4cc(CN5CCC[C@H](C)C5)[nH]c4c3=O)c2)(c2nncn2C)C1
3.67 | C[C@H]1CCCN(Cc2cc3c(C(F)(F)F)cn(-c4cccc([C@@H](c5nncn5C)C5CCC5)c4)c(=O)c3[nH]2)C1
7.04 | C[C@H]1CCCN(Cc2cc3c(C(F)(F)F)cn(-c4cccc(-c5ccccc5-c5nncn5C)c4)c(=O)c3[nH]2)C1
3.01 | CO[C@H]1C[C@@](c2cccc(-n3cc(C(F)(F)F)c4cc(CN5CC6CC6C5)[nH]c4c3=O)c2)(c2nncn2C)C1 (some centres not stated)
1.4 | C[C@H]1CCCN(Cc2cc3c(C4CC4)cn(-c4cccc([C@H](c5nncn5C)C5CCC5)c4)c(=O)c3[nH]2)C1
5.45 | CO[C@H]1C[C@](c2cccc(-n3cc(C(F)(F)F)c4cc(CN5CC6CC6C5)[nH]c4c3=O)c2)(c2nncn2C)C1 (some centres not stated)
